The text below walks through data of patent US20110009454A1, “COMPOSITION FOR AGRICULTURAL USE FOR CONTROLLING OR PREVENTING PLANT DISEASES CAUSED BY PLANT PATHOGENS” (SUMITOMO CHEMICAL COMPANY, LIMITED, priority 2008, published 2011).

The subject of this test is Grape Downy Mildew (Plasmopara viticola). Put plainly: Test Example 6: treating grape downy mildew, foliage application. The conditions noted are these: 500 ppm, foliage application 1 day after inoculation (curative), grape (Berry-A or Chardonnay seedling), 5 days green house then 1 day high humidity.

A value given as a limit tells only on which side of the number the result lay.

Protocol: Such control effect was evaluated by visually observing the area of blotch on a test plant during a test and then comparing the area of the blotch of a plant treated with the controlling reagent of the present invention with the area of the blotch of an untreated plant.
A plastic pot was filled with sandy soil, and grape (variety: Berry-A or Chardonnay seedling) was then seeded. The grape plants were allowed to grow in a green house for 40 days. A water suspension of zoosporangium of grape Plasmopara viticola was inoculated to the aforementioned pot by spaying it. Thereafter, the grape plants were left at 23° C. at a high humidity for 1 day, and they were then air-dried, so as to obtain grape downy mildew-infected nursery plants. […] The prepared flowable formulations were set to a predetermined concentration (500 ppm) by diluting them with water, and they were then subjected to foliage application such that they could be sufficiently attached to the leaves of the aforementioned nursery grape plants. After completion of the foliage application, the plants were subjected to air-drying, and they were then left at 23° C. in a green house for 5 days. Thereafter, the plants were further left at 23° C. at a high humidity for 1 day. Thereafter, the affected areas thereof were examined.

For the compound `Cc1ccc(Oc2ccc(CNC(=O)c3cccnc3N)s2)cc1` [compound 236], the “affected areas of treated plants relative to affected areas of untreated plants” value is listed as ≤ 30%.
